Measurements taken from ChEMBL document CHEMBL1921694, “Structure-based design of isoindoline-1,3-diones and 2,3-dihydrophthalazine-1,4-diones as novel B-Raf inhibitors” (Bioorg Med Chem Lett, 2011).

Target: Serine/threonine-protein kinase B-raf (Homo sapiens, UniProt P15056)
Assay: Inhibition of human recombinant his6-tagged B-Raf expressed in Sf9 cells assessed as inhibition of MEK1 phosphorylation after 60 mins

Serine/threonine-protein kinase B-raf, sequence (P15056 whole entry): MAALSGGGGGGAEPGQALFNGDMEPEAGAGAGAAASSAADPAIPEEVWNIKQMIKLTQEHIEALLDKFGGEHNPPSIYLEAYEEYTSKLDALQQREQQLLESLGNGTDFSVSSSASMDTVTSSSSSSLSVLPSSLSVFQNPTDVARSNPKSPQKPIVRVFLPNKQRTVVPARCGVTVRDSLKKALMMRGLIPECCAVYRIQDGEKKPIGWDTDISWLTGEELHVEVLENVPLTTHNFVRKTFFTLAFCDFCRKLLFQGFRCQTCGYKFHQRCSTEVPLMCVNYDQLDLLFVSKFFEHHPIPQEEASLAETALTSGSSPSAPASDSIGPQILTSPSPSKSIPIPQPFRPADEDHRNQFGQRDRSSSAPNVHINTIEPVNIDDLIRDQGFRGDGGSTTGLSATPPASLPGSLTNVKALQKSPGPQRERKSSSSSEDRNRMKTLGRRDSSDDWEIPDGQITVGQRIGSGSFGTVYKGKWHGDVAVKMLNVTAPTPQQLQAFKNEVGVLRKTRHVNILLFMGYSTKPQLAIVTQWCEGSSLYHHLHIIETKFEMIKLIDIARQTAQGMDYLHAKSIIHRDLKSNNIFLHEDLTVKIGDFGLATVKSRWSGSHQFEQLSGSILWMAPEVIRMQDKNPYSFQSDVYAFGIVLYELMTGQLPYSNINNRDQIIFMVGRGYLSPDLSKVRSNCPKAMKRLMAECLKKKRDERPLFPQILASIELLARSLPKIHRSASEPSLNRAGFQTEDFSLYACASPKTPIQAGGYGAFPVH

Compound	IC50
NC(=O)c1ccc2[nH]cc(-c3cccc(O)c3)c2c1	> 10000 nM
O=C1NC(=O)c2cc3c(-c4cccc(O)c4)c[nH]c3cc21	3470 nM
O=C1NC(=O)c2cc(Nc3cccc(O)c3)c(Nc3cccc(O)c3)cc21	338 nM
O=C1NC(=O)c2cc(Nc3cccc(O)c3)c(Nc3ccccc3)cc21	1680 nM
O=c1[nH][nH]c(=O)c2cc(Nc3cccc(O)c3)c(Nc3ccccc3)cc12	3770 nM
O=c1[nH][nH]c(=O)c2cc(Nc3cccc(O)c3)c(Nc3cccc(O)c3)cc12	290 nM
O=C(Nc1cccc(Nc2cc3c(cc2Cl)C(=O)NC3=O)c1)c1cccc(Cl)c1	117 nM
O=C(Nc1cccc(Nc2cc3c(cc2Cl)C(=O)NC3=O)c1)c1cccc(Br)c1	35 nM
O=C(Nc1cccc(Nc2cc3c(cc2Cl)C(=O)NC3=O)c1)c1cccc(I)c1	8 nM
O=C(Nc1cccc(Nc2cc3c(cc2Cl)C(=O)NC3=O)c1)c1cccc(C(F)(F)F)c1	10 nM
O=C(Nc1cccc(Nc2cc3c(cc2Cl)C(=O)NC3=O)c1)c1cccc(OC(F)(F)F)c1	6 nM
N#Cc1cccc(C(=O)Nc2cccc(Nc3cc4c(cc3Cl)C(=O)NC4=O)c2)c1	297 nM
Cn1nc(C(C)(C)C)cc1C(=O)Nc1cccc(Nc2cc3c(cc2Cl)C(=O)NC3=O)c1	349 nM
O=C(Nc1cccc(Nc2cc3c(=O)[nH][nH]c(=O)c3cc2Cl)c1)c1cccc(Cl)c1	35 nM
O=C(Nc1cccc(Nc2cc3c(=O)[nH][nH]c(=O)c3cc2Cl)c1)c1cccc(Br)c1	19 nM
O=C(Nc1cccc(Nc2cc3c(=O)[nH][nH]c(=O)c3cc2Cl)c1)c1cccc(I)c1	8 nM
O=C(Nc1cccc(Nc2cc3c(=O)[nH][nH]c(=O)c3cc2Cl)c1)c1cccc(C(F)(F)F)c1	17 nM
O=C(Nc1cccc(Nc2cc3c(=O)[nH][nH]c(=O)c3cc2Cl)c1)c1cccc(OC(F)(F)F)c1	18 nM
N#Cc1cccc(C(=O)Nc2cccc(Nc3cc4c(=O)[nH][nH]c(=O)c4cc3Cl)c2)c1	296 nM
Cn1nc(C(C)(C)C)cc1C(=O)Nc1cccc(Nc2cc3c(=O)[nH][nH]c(=O)c3cc2Cl)c1	293 nM
